Test results reported in patent US20050043262A1, “Novel specific inhibitor of the cyclin kinase inhibitor p21Waf1/Cip1 and methods of using the inhibitor” (priority 2000, published 2005).

Assays:
[1] = test system: p21^Waf1/Cip1; assay: p21 protein level by Western blot in A10 VSM cells; format: cell-based, rat
Experimental: Western blots: Cells were grown to confluence in 6 cm culture dishes and serum deprived. After transfection and or treatment with appropriate agonist, the cells were washed with phosphate-buffered saline and lysed in lysis buffer and the supernatant was Western blotted as described (Weiss et al., 1998 Am. J. Physiol., 274, p. C1521-C1529).
To determine whether antisense transfection with p21^Waf1/Cip1 antisense oligonucleotides indeed decreases p21^Waf1/Cip1 protein levels, p21^Waf1/Cip1 levels after antisense transfection were examined employing the fact that PMA is a potent inducer of p21^Waf1/Cip1 (Huang et al., 1995 Proc. Natl. Acad. Sci. U.S.A., 92, p. 4793-4797; Michieli et al., 1994 Cancer Res., 54, p. 3391-3395). Since p21^Waf1/Cip1 protein levels were induced in VSM cells between 2 and 6 hours after PMA stimulation (FIG. 4), the p21^Waf1/Cip1 levels in transfected cells after similar times of PMA stimulation were examined. […] There was no effect of the p21^Waf1/Cip1 sense (SEQ. ID NO.:2) control oligodeoxynucleotide on cellular p21^Waf1/Cip1 levels (compare with FIG. 4).
To check for specificity of protein inhibition by the antisense p21^Waf1/Cip1 oligodeoxynucleotide (SEQ. ID NO.: 1), protein levels of p21^Waf1/Cip1 and p27^Kip1 after transfection with antisense p21^Waf1/Cip1 oligodeoxynucleotide (SEQ. ID NO.:1) were examined. In these experiments the ability of antisense oligodeoxynucleotides (SEQ. ID NO.:1) to inhibit maximally stimulated CKI expression (see FIG. 4) was assessed. The cells were stimulated with PMA for 4 hours at various times after overnight serum starvation.
(§1) Western blots: Cells were grown to confluence in 6 cm culture dishes and serum deprived. After transfection and or treatment with appropriate agonist, conditioned medium was removed and saved and the cells were washed with phosphate-buffered saline and lysed in lysis buffer. Both supernatant and cell lysate were normalized to the lysate protein concentrations and Western blotted as described (Weiss R H, et al. Am J Physiol 274:C1521-C1529, 1998).
To confirm that p21 levels were increased after exposure to ionizing radiation, and that the oligonucleotides inhibit this phenomenon in A10 cells, p21 protein levels under these conditions were assayed. […] With the exception of the initial decrease in p21 levels at ½ and 1 hours, the results with the control oligonucleotides were similar to that observed in non-transfected cells.
Adriamycin is a prototypical DNA damaging agent used in the treatment of a variety of cancers. The predominantly G2 arrest seen after Adriamycin treatment has been associated with an increase in p21 levels in some cell lines (Siu W Y, et al. FEBS Lett 461:299-305, 1999). In order to determine whether similar augmentation of p21 is seen in A10 VSM cells and whether the antisense p21 oligonucleotide is inhibiting this response, these cells were treated with Adriamycin either with or without first transfecting the cells with the antisense and control oligonucleotides. Confluent VSM cells were transfected with antisense oligonucleotide to p21 or random sequence control oligonucleotide as described above. After 24 hours, the cells were exposed to Adriamycin (500 ng/ml), lysed at the indicated times after exposure, and Western blotted with p21 antibody.
Using a random sequence phosphorothioate oligodeoxynucleotide (SEQ. ID NO.:3) as a control, the effect of the antisense oligodeoxynucleotide to p21 (400 nM) on p21 and α-actin protein expression in A10 VSM cells, was examined. The lysates, normalized for protein content, were Western blotted with either p21 or α-actin antibody.

[2] = test system: A431 cells; assay: [3H]thymidine incorporation (DNA synthesis) in A431 cells; format: cell-based, human; details: PMA 100 ng/ml
Experimental: FIG. 9A-D are bar graphs showing Antisense p21^Waf1/Cip1 oligodeoxynucleotide has no significant effect DNA synthesis in PMA-inhibitable A431 cells, as described in Example II, infra. […] A431 cells were placed in serum-free medium overnight and then stimulated with (A) PDGF-BB (30 ng/ml), (B) 10% serum-containing medium, or (C) PDGF-BB or PMA (100 ng/ml) for another 8 hours before [^3H]-thymidine was added for overnight incubation. (D) A10 VSM cells were transfected with sense and antisense p21^Waf1/Cip1 oligonucleotides as above and treated similarly to (B). DNA synthesis was assessed by [^3H]-thymidine incorporation and is expressed as mean ±s.e.m. of three wells per data point. The absolute counts differ between experiments due to different confluency of the cells. The experiments shown are representative of two separate experiments.
Cell culture and DNA synthesis: Cultures of A10 and A431 cells were obtained from American Type Culture Collection (Rockville Md), were maintained as described (Weiss et al. 1998, Am. J. Physiol. 274, C1521-C1529), and were used between passages 15 and 24 or 25 and 35, respectively. The cells were growth-arrested by placing them in serum-free quiescence medium, exposed to growth factors as indicated, and [^3H]thymidine incorporation assessed as previously described (Weiss and Nuccitelli, 1992, J. Biol. Chem. 267, 5608-5613).
This A431 data is in contrast with that obtained in a variety of VSM cell lines, where cell growth was inhibited by similar oligodeoxynucleotide concentrations in cell stimulated with both PDGF-BB and serum (FIG. 9d).

[3] = test system: caspase-3; assay: Caspase-3 activation (cleavage product) by Western blot in VSM cells; format: cell-based, rat; details: Adriamycin experiment (FIG. 19b)
Experimental: FIGS. 19A and B depict how Caspase-3 is activated by antisense oligonucleotide to p21 but not early after radiation or Adriamycin, as described in Example III, infra. Confluent VSM cells were transfected with oligonucleotide in the concentration indicated, left in serum-containing media overnight, and exposed to (A) ionizing radiation (12 Gy) or (B) Adriamycin where indicated. 4 hours later, activation of caspase-3 was assessed by Western blotting. The arrowhead indicates the cleavage product of caspase-3 signifying its processing as an early step in apoptosis. Wortmannin (wort) is a positive control for apoptosis. […] The experiment shown is representative of two separate experiments.
as §1
In order to determine whether the potentiation of ionizing radiation and Adriamycin induced DNA synthesis inhibition by p21 antisense oligonucleotides is accompanied by apoptosis, caspase-3 activation in response to ionizing radiation was examined. Caspase-3 is an effector caspase whose activation (leading to apoptosis) results in a 20 kD cleavage product which can be assessed by Western blotting (McCarthy N J, Evan G I. Curr Top Dev Biol 36:259-278, 1998). This process is an early event in a cascade of reactions which ultimately leads to apoptosis, as is evident by the fact that inactivation of caspase-3 dramatically reduces apoptosis in several cell lines (Woo M, et al. Genes Dev 12:806-819, 1998).
VSM cells were transfected with antisense or control oligonucleotides overnight and then stimulated with ionizing radiation.

[4] = test system: A10 VSM cells; assay: [3H]thymidine incorporation (DNA synthesis) in A10 VSM cells; format: cell-based, rat
[5] = test system: laminin; assay: Laminin production and secretion (immunoblot of lysate and conditioned media); format: cell-based, rat; details: control oligodeoxynucleotide transfected cells, TGF-β higher doses
Experimental: Western blots: Cells were grown to confluence in 6 cm culture dishes and serum deprived. After transfection and/or treatment with appropriate agonist, conditioned medium was removed and saved and the cells were washed with phosphate-buffered saline and lysed in lysis buffer. Both supernatant and cell lysate were normalized to the lysate protein concentrations and Western blotted as described (Weiss, R. H.; et al. Am. J. Physiol. 274: C1521-C1529; 1998).
The p21 influences on matrix protein secretion in VSM cells were determined. Levels of the matrix proteins laminin and fibronectin were examined in both TGF-β stimulated lysate and conditioned media of cells in which p21 expression had been attenuated. The cells were transfected with either antisense p21 (SEQ. ID NO.:1) (400 nM), or random sequence control (SEQ. ID NO.:3) (400 nM) oligodeoxynucleotide, and then stimulated with TGF-β at for 0.1 to 10 ng/ml for 4 hours. Conditioned media and cell lysate were collected, and both medium and lysate volumes were normalized for the protein content in total cell lysate to exclude any skewing of the data due to cell proliferation. The proteins were electrophoresed and immunoblotted with either fibronectin (after immunoprecipitation to eliminate extraneous bands which appeared in the absence of this procedure) or laminin antibody.

[6] = test system: fibronectin; assay: Fibronectin production and secretion (immunoprecipitation/immunoblot); format: cell-based, rat; details: VSM cells, TGF-β, maximal level in lysate at higher doses
Experimental: Immunoprecipitations: VSM cells were grown to confluence. After incubation under appropriate conditions, the cells were washed with ice-cold phosphate-buffered saline and immediately lysed in lysis buffer (20 mM Tris [pH7.5], 150 mM NaCl, 1 mM EDTA, 1 mM EGTA, 1% Triton X-100, 2.5 mM sodium pyrophosphate, 1 mM β-glycerolphosphate, 1 mM Na3VO4, 1 μg/ml Leupeptin, 1 mM PMSF) at 4° C. The cells were scraped off with a rubber spatula and the insoluble material removed by centrifuging at 10,000× g for 10 min at 4° C. Protein concentration was determined by A595, and lysates containing equal amounts of protein were incubated with […] anti-fibronectin antibody at 4° C. overnight. Protein A-Sepharose beads were added and the resulting mixture was incubated for an additional 2 hours at 4° C. The beads were centrifuged in a microfuge for 20 sec, and the pellet was washed 3 times with cold lysis buffer. The supernatant was decanted, gel loading buffer was added to the precipitate, and the solution was boiled for 5 min, and centrifuged. The supernatant was electrophoresed on a 7.5% SDS-polyacrylamide gel with equal volumes of sample per lane. The proteins were electrophoretically transferred to nitrocellulose and probed with fibronectin antibody.
The p21 influences on matrix protein secretion in VSM cells were determined. […]

[7] = test system: p21^Waf1/Cip1; assay: PMA-induced p21 level by Western blot in A431 cells; format: cell-based, human; details: 200 nM oligodeoxynucleotide, PMA 100 ng/ml up to 6 hours
Experimental: Western blots: Cells were grown to confluence in 6 cm culture dishes and serum deprived. After transfection and or treatment with appropriate agonist, the cells were washed with phosphate-buffered saline and lysed in lysis buffer and the supernatant was Western blotted as described (Weiss and Nuccitelli, 1992 J. Biol. Chem., 267, p. 5608-5613).
PMA is a potent inducer of p21^Waf1/Cip1 in a variety of different cell lines (Huang et al., 1995 Proc. Natl. Acad. Sci. US.A., 92, p. 4793-4797; Michieli et al., 1994 Cancer Res., 54, p. 3391-3395) and was employed to examine p21^Waf1/Cip1 levels after antisense transfection and confirm efficacy of translation to attenuate p21^Waf1/Cip1 levels. A431 cells were transfected with 200 nM antisense p21^Waf1/Cip1 (SEQ. ID NO.:1) or sense p21^Waf1/Cip1 oligodeoxynucleotide (SEQ. ID NO.:2). After overnight incubation in serum-free medium, the cells were stimulated with PMA (100 ng/ml) for the times indicated, lysed, and the lysates were Western blotted with p21^Waf1/Cip1 or α-actin antibody.

CCCCCCCCCCCCCC(=O)O[C@@H]1[C@@H](C)[C@@]2(O)[C@@H](C=C(CO)C[C@]3(O)C(=O)C(C)=C[C@@H]23)[C@@H]2C(C)(C)[C@]12OC(C)=O [PMA, reference compound]
p21^Waf1/Cip1 protein levels after PMA stimulation ([1]; non-transfected VSM cells, PMA 100 ng/ml, between 2 and 6 hours): induced | growth of A431 cells with PMA [2]: significant growth inhibition

COc1cccc2c1C(=O)c1c(O)c3c(c(O)c1C2=O)C[C@@](O)(C(=O)CO)C[C@@H]3O[C@H]1C[C@H](N)[C@H](O)[C@H](C)O1 [Adriamycin, Adriamycin (doxorubicin), reference compound]
p21 levels after Adriamycin exposure ([1]; VSM cells, Adriamycin 500 ng/ml): increased | caspase-3 activation [3]: little effect | growth inhibitory effect of Adriamycin (DNA synthesis) ([4]; control oligonucleotide transfected VSM cells, 500 to 2000 ng/ml for 2 hours): plateaued

TGF-β: growth factor TGF-β1 obtained from Upstate Biotechnology
DNA synthesis in serum-starved cells ([4]; A10 VSM cells, TGF-β 0.1 to 10 ng/ml for 24 hours): significantly reduced | inhibitory effect of TGF-β on DNA synthesis in transfected cells ([4]; antisense or control transfected A10 VSM cells, 10% serum, TGF-β 10 ng/ml): still present | laminin secretion [5]: decrease laminin secretion at higher doses | fibronectin production [6]: induced fibronectin production

5′-ATGTCCGATCCTGGTGATGTC-3′ (sense ATGTCCGATCCTGGTGATGTC; DNA, backbone not given here) [Sense p21Waf1/Cip1 control oligodeoxynucleotide, reference compound]
PMA-induced p21^Waf1/Cip1 levels [7]: no effect | PMA-induced p21^Waf1/Cip1 levels ([1]; A10 VSM cells, PMA stimulation up to 6 hours after transfection): no effect | PDGF-stimulated DNA synthesis, dose/response ([4]; A10 VSM cells, increasing oligodeoxynucleotide concentration up to 200 nM): no effect
